Laboratory results taken from patent US20170327471A1, “Aryl sulphide and aryl sulphoxide derivatives having C-C-attached uracils as pesticides” (BAYER CROPSCIENCE AKTIENGESELLSCHAFT, priority 2014, published 2017).
Where two headings read alike, the source gives them in different places.

Key:
Meloidogyne incognita [1] = experiment: Meloidogyne incognita test (soil drench, lettuce); type: in vivo; conditions: application rate 8 ppm, after 21 days, lettuce in soil (loamy sand)
Experimental: 7. Meloidogyne incognita—Test Solvent: 7 parts by weight of dimethylformamide Emulsifier: 2.5 parts by weight of alkylaryl polyglycol ether To produce a suitable preparation of active compound, 1 part by weight of active compound is mixed with the stated amounts of solvent and emulsifier, and the concentrate is diluted with water to the desired concentration, where the volume of soil to be drenched has to be taken into account. Here, it has to be made sure that a concentration of 20 ppm of emulsifier in the soil is not exceeded. To produce further test concentrations, the mixture is diluted with water. Pots filled with soil (loamy sand) are watered with the active compound solution. An egg/larvae suspension of the southern root-knot nematode (Meloidogyne incognita) is added, lettuce seeds are scattered on the surface of the soil and covered with quartz sand. The lettuce seeds germinate and the plants develop. The galls develop on the roots. After 21 days, the nematicidal efficacy in % is determined by the formation of galls. 100% means that no galls were found; 0% means that the number of galls on the treated plants corresponds to that of the untreated control.

Tetranychus urticae [2] = experiment: Tetranychus urticae spray test, OP-resistant (bean plants); type: in vivo; conditions: application rate 20 ppm, after 7 days
Experimental: 5. Tetranychus urticae-Spray Test, OP-Resistant Solvent: 7 parts by weight of dimethylformamide Emulsifier: alkylaryl polyglycol ether
(§1) To produce a suitable preparation of active compound, 1 part by weight of active compound is dissolved using the stated parts by weight of solvent and made up with water containing an emulsifier concentration of 1000 ppm until the desired concentration is attained. To produce further test concentrations, the preparation is diluted with emulsifier-containing water. If the addition of ammonium salts or/and penetrants is required, these are each added in a concentration of 1000 ppm to the preparation solution.
Bean plants (Phaseolus vulgaris) heavily infested by all stages of the greenhouse red spider mite (Tetranychus urticae) are sprayed with an active compound preparation of the desired concentration.
After 7 days, the efficacy in % is determined. 100% means that all the spider mites have been killed; 0% means that none of the spider mites have been killed.

[3] = logP by reversed-phase HPLC (EEC Directive 79/831 Annex V.A8); type: physicochemical; conditions: reversed-phase C18 HPLC column
Experimental: The logP values were determined in accordance with EEC Directive 79/831 Annex V.A8 by HPLC (High Performance Liquid Chromatography) using reversed-phase columns (C 18) by the following methods:
^[a] The LC-MS determination in the acidic range was effected at pH 2.7 with 0.1% aqueous formic acid and acetonitrile (contains 0.1% formic acid) as eluents; linear gradient from 10% acetonitrile to 95% acetonitrile. Called logP (HCOOH) in the table.
^[b] LC-MS determination in the neutral range was effected at pH 7.8 with 0.001 molar aqueous ammonium hydrogencarbonate solution and acetonitrile as eluents; linear gradient from 10% acetonitrile to 95% acetonitrile. Called logP (neutral) in the table.
Calibration was effected with unbranched alkan-2-ones (having 3 to 16 carbon atoms) with known logP values (logP values determined on the basis of the retention times by linear interpolation between two successive alkanones).

Panonychus ulmi = Panonychus ulmi spray test; type: in vivo; conditions: application rate 20 ppm, after 14 days, plum trees
Experimental: 8. Panonychus ulmi—Spray Test Solvent: 7 parts by weight of dimethylformamide Emulsifier: alkylaryl polyglycol ether To produce a suitable preparation of active compound, 1 part by weight of active compound is dissolved in the parts by weight of solvent stated and filled with water containing an emulsifier concentration of 1000 ppm until the desired concentration is reached. To prepare further test concentrations, the mixture is diluted with emulsifier-containing water. If the addition of ammonium salts and/or penetrants (rapeseed oil methyl ester) is required, these are, after dilution of the finished preparation solution, added using a pipette, at a concentration of in each case 1000 ppm. Plum trees (Prunus domestica), infested by a mixed population of the European red mite (Panonychus ulmi) are treated by spraying with the active compound preparation of the desired concentration. After 14 days, the kill in % is determined. 100% means that all spider mites have been killed; 0% means that none of the spider mites have been killed.

Meloidogyne incognita [4] = experiment: Meloidogyne incognita test (sand, lettuce, solvent acetone); type: in vivo; conditions: application rate 20 ppm, after 14 days, lettuce in sand
Experimental: 2. Meloidogyne incognita Test Solvent: 125.0 parts by weight of acetone To produce a suitable preparation of active compound, 1 part by weight of active compound is mixed with the stated amount of solvent and the concentrate is diluted with water to the desired concentration. Vessels are filled with sand, active compound solution, an egg/larvae suspension of the southern root-knot nematode (Meloidogyne incognita) and lettuce seeds. The lettuce seeds germinate and the plants develop. The galls develop on the roots. After 14 days, the nematicidal efficacy in % is determined by the formation of galls. 100% means that no galls were found; 0% means that the number of galls on the treated plants corresponds to the untreated control.

Boophilus microplus = Boophilus microplus injection test; type: in vivo; conditions: application rate, injection into engorged adult female cattle ticks, after 7 days
Experimental: 1. Boophilus microplus—Injection Test Solvent: dimethyl sulphoxide
To produce a suitable preparation of active compound, 10 mg of active compound are mixed with 0.5 ml of solvent and the concentrate is diluted with solvent to the desired concentration.
1 μl of the active compound solution is injected into the abdomen of 5 engorged adult female cattle ticks (Boophilus microplus). The animals are transferred into dishes and kept in a climate-controlled room.
Efficacy is assessed after 7 days by laying of fertile eggs. Eggs which are not visibly fertile are stored in a climate-controlled cabinet until the larvae hatch after about 42 days. An efficacy of 100% means that none of the ticks has laid any fertile eggs; 0% means that all the eggs are fertile.

Tetranychus urticae [5] = experiment: Tetranychus urticae spray test, OP-resistant (bean leaf discs); type: in vivo; conditions: application rate 500 g/ha, after 6 days
Experimental: 4. Tetranychus urticae—Spray Test, OP-Resistant Solvent: 78.0 parts by weight of acetone • • 1.5 parts by weight of dimethylformamide Emulsifier: alkylaryl polyglycol ether
as §1, with “water.” for “water. If the addition of ammonium salts or/and penetrants is required, these are each added in a concentration of 1000 ppm to the preparation solution.”
Discs of bean leaves (Phaseolus vulgaris) infested with all stages of the greenhouse red spider mite (Tetranychus urticae) are sprayed with an active compound preparation of the desired concentration.
After 6 days, the efficacy in % is determined. 100% means that all the spider mites have been killed; 0% means that none of the spider mites have been killed.

Tetranychus urticae [6] = experiment: Tetranychus urticae drench test, OP-resistant; type: in vivo; conditions: application rate 4 ppm, after 14 days, bean plants in soil
Experimental: 6. Tetranychus urticae—Drench Test, OP-Resistant Solvent: 7 parts by weight of dimethylformamide Emulsifier: 2 parts by weight of alkylaryl polyglycol ether
To produce a suitable preparation of active compound, 1 part by weight of active compound is mixed with the stated amounts of solvent and emulsifier, and the concentrate is diluted with water to the desired concentration, where the volume of soil to be drenched has to be taken into account. Here, it has to be made sure that a concentration of 40 ppm of emulsifier in the soil is not exceeded. To produce further test concentrations, the mixture is diluted with water.
Bean plants (Phaseolus vulgaris) in pots filled with soil, which plants are heavily infested by all stages of the greenhouse red spider mite (Tetranychus urticae), are watered with an active compound preparation of the desired concentration.
After 14 days, the efficacy in % is assessed. 100% means that all spider mites have been killed; 0% means that none of the spider mites have been killed.

chromatographic logP ([3]; acidic range, pH 2.7, 0.1% aqueous formic acid/acetonitrile, read-out: logP (HCOOH) = logP[a]): 1.77 | chromatographic logP ([3]; neutral range, pH 7.8, 0.001 molar aqueous ammonium hydrogencarbonate/acetonitrile, read-out: logP (neutral) = logP[b]): 1.75
SMILES: Cc1cc(F)c(-c2cc(=O)n(C)c(=O)n2C)cc1[S+]([O-])CC(F)(F)F (stereo not drawn) [Example I-1, 6-{2-Fluoro-4-methyl-5-[(2,2,2-trifluoroethyl)sulphinyl]phenyl}-1,3-dimethylpyrimidine-2,4(1H,3H)-dione]
nematicidal efficacy (formation of galls) (Meloidogyne incognita [1]): 90% | efficacy (spider mites killed) (Tetranychus urticae [2]): 100% | efficacy (kill of spider mites) (Panonychus ulmi): 100% | nematicidal efficacy (formation of galls) (Meloidogyne incognita [4]): 100% | efficacy (no fertile eggs laid) (Boophilus microplus): 100% | efficacy (spider mites killed) (Tetranychus urticae [5]): 100% | efficacy (spider mites killed) (Tetranychus urticae [6]): 100%
